Assay results taken from patent EP2966448B1, “METHOD FOR THE PREDICTION OR PROGNOSIS OF THE RESPONSE OF A HUMAN SUBJECT SUFFERING FROM CANCER TO TREATMENT WITH AN ANTAGONIST OF THE NK1 RECEPTOR” (priority 2013, dated 2014).
Where two headings read alike, the source gives them in different places.

Key:
[1] = test system: human primary tumor cells; assay: Inhibition of primary tumor cell cultures vs absence or presence of ERK  protein (Example 3; tumor type per table line); format: cell-based; settings: for Percentage of inhibition of cell cultures: 100 micromolar
Method: (§1) Cell cultures. […] Briefly, small pieces of the tumors were digested into a hyaluronidase solution (Sigma-Aldrich, USA) at a concentration of 1 mg/ml during 15 minutes at 37°C, and then they were treated with 6 mg/ml of collagenase type IV (Invitrogen) during 2 hours at 37°C. Consecutively, cells were washed, and resuspended in the DMEM culture medium with high concentration of glucose (Dulbecco's Modified Eagle's Medium, Invitrogen) supplemented with 1% of antibiotics-antimycotics (Invitrogen) and with 1% of sodium pyruvate (Invitrogen), and the cells were seeded in culture slides at a concentration of 10.000 cells per square centimeter. When cells reached confluence, the adherent cells were separated using sterile trypsin at 0,5% (Invitrogen) and they were used among passages 3 and 9. For the assays shown next, tumor cells were seeded on slides at a concentration of 25.000 cells per well. A total of 6 wells containing the tumor cells were used as survival control. […] All the cultures were kept during 48 hours and later on recollected for their analysis.
Consecutively, the cells were placed in cultures in the presence of several antagonists of the NK1 receptor.
In each case it was determined the presence or absence of the downstream effector in the MAP Kinases ERK pathway.
To determine the presence of the ERK protein, it was performed a Western Blot technique, using as primary antibody: Phospho-p44/42 MAPK (Erk1/2) (Thr202/Tyr204) (D13.14.4E) XP® Rabbit mAb (4370, Cell Signalling). To determine the presence of the MEK protein, it was performed the Western Blot technique, using as primary antibody Phospho-MEK1/2 (Ser217/221) (9121, Cell Signalling).
The antibody against NK1 receptor (Table 21) was used at 1/50 concentration. The percentages of inhibition are expressed in percentages of variation in relation to control ± standard deviation.

Prostate carcinoma = assay: cells; settings: Homo sapiens, 1 micromolar
Method: Cell cultures. To obtain tumor cells from human primary tumors we used the method described in De Bari et al. (De Bari et al. 2001). Briefly, small pieces of the tumors were digested into a hyaluronidase solution (Sigma-Aldrich, USA) at a concentration of 1 mg/ml during 15 minutes at 37°C, and then they were treated with 6 mg/ml of collagenase type IV (Invitrogen) during 2 hours at 37°C. Consecutively, cells were washed, and resuspended in the DMEM culture medium with high concentration of glucose (Dulbecco's Modified Eagle's Medium, Invitrogen) supplemented with 1% of antibiotics-antimycotics (Invitrogen) and with 1% of sodium pyruvate (Invitrogen), and the cells were seeded in culture slides at a concentration of 10.000 cells per square centimeter. When cells reached confluence, the adherent cells were separated using sterile trypsin at 0,5% (Invitrogen) and they were used among passages 3 and 9. For the assays shown next, tumor cells were seeded on slides at a concentration of 25.000 cells per well. A total of 6 wells containing the tumor cells were used as survival control. […] All the cultures were kept during 48 hours and later on recollected for their analysis.
Immunohistochemistry techniques. The presence of NK1 receptors was also analyzed using immunohistochemistry techniques. Briefly, a sample of each of the cultures of the cell lines used in the present invention, was centrifuged (5 minutes at 1.500 rpm) and the pellet obtained was dehydrated using increasing concentrations of ethanol and, finally, xylol. Then, said dehydrated samples were embedded in paraffin, creating a block of cells. Such paraffin blocks were cut with a microtome at 5 microns thickness, and were placed on microscope slides adequate to perform immunohistochemistry techniques. Consecutively, they were de-paraffinized by immersing them in xylol, to be finally hydrated using a solution containing decreasing concentrations of ethanol, and finally submerged them into water. […] After this, the samples were left to cool down at room temperature for 10 minutes. The endogenous peroxidase activity was blocked with 3% peroxide of hydrogen for 30 minutes at room temperature. After washing the samples with 0.05 M of Tris buffer, they were incubated with 10% non-immune pork serum at for 30 minutes at room temperature. To analyze the expression of NK1 receptors, the cellular samples were incubated in the presence of anti-NK1 antibodies (S8305, Sigma-Aldrich) diluted 1:1000, overnight at 4°C. Afterwards, the samples were washed in Tris buffer 0.05 M at room temperature. The next step was the addition of Envision System-HRP (Dako) reagents for 30 minutes at room temperature. Then, the samples were washed again in Tris buffer 0.05 M and the immunoreactivity was visualized through light microscopy with a chromogenic solution containing 3,3'-Diaminobenzidine (DAB+; Dako, USA). To differentiate the cell nuclei, they were slightly stained with hematoxylin. As negative control, it was used samples not incubated with the primary antibody anti-NK1, which was replaced by non-immune serum. All the samples were evaluated.
To value the immunostaining in each of the cases six cuts were performed to be analyzed by the immunohistochemistry technique. In each of the six cuts, it was counted cells in 20 fields (magnification 400x) using an Olympus microscope (model CX31). In each field it was counted the total number of cells and the number of cells presenting immunostaining, calculating afterwards the percentage of cells which presented immunostaining.

[2] = test system: Ovarian carcinoma (Adenocarcinoma); assay: Inhibition of primary tumor cell cultures vs Kras mutation (Example 2); format: cell-based, human; settings: Homo sapiens, 100 micromolar, read-out: Percentage of inhibition of cell cultures
Method: as §1
In each case the presence or not of mutations in K-ras gene was determined.
To determine the existence of mutations in the K-ras gene DNA from cancer tumor cells was extracted from samples obtained from the different cancer tumor cells, using DNA extraction kits from Takara (Madison, WI, US) or Ambion (Huntingdon, Cambridgeshire, United Kingdom), following the manufacturer's instructions, and as it has been previously published (Di Fiore F, et al. 2007). Consecutively it was analyzed by sequencing the exon 2 of the KRAS gene, , by means of PCR amplification from previously extracted cancer tumor DNA, using the following sense primer (SEQ ID NO. 15): 5'-[sequence]-3' and anti-sense primer (SEQ ID NO. 16): 5'-[sequence]-3'. After the purification using the Qiagen extraction kit, the PCR products were sequenced using the Big Dye Terminator Kit V3.1 (Applied Biosystems, Foster City, CA, U.S.) and an ABI Prism 377 or 3100 DNA sequencer (Applied Biosystems). The presence of a heterozygous mutation in the KRAS gene in cancer tumor cells of the cultures was defined as the appearance of a mutant peak of a height of at least a third of the wild type. All the sequence analysis were executed at least twice in two independent PCR.
The antibody against NK1 receptor (Table 16) was used at 1/50 concentration. The percentages of inhibition are expressed in percentage of variation in relation to control ± standard deviation.

[3] = test system: human primary tumor cells; assay: Inhibition of primary tumor cell cultures vs amplification of the gene encoding the NK1 receptor (Example 6; tumor type per table line); format: cell-based; settings: 100 micromolar
Method: as §1
The presence or absence of the amplification of the gene encoding for the NK1 receptor was determined, and then the cells were cultured in the presence of several antagonists of the NK1 receptor.
For each case, the presence or absence of amplification of the gene encoding for the NK1 receptor was determined.
In order to determine the presence of the amplification (increase in the number of copies) of the gene encoding the NK1 receptor (TAC1R), it was used the comparative genomic hybridization technique (CGH Array). Firstly genomic DNA was extracted from each case. Later, it was performed the marking and hybridization of the DNA of each sample together with DNA of a commercial reference without genomic alterations (from masculine or feminine sex, depending on the gender of the patient from whom the samples were obtained). The Array is Sureprint G3 Human CGH Microarray from the company Agilent was used, with an average separation between probes of 5.3Kb and 4.6Kb for the genes RefSeq. The reading of the microarray was done with the DNA Microarray Scanner G2565CA from Agilent, at a resolution of 3 µm. The analysis of the results was performed with the software Cytogenomics v 2.0.6.0 from Agilent with ADM-2: 6.0; Centralization: ON (Threshold: 6.0, Bin size: 10); Fuzzy zero: ON; Aberration filters: ON (minProbes=5 and minAvgAbsLopRatio= 0,5); Feature Level Filters : ON. The genomic coordinates are coincident with the NCBI36genome (hg18). Cases were distributed in two groups: Group I for those cases without the amplification of the gene encoding the NK1 receptor (locus 2p13.1-p12), and Group II for those cases with amplification of the gene encoding the NK1receptor (locus 2p13.1-p12).
The antibody against NK1 receptor (Table 36) was used at 1/50 concentration. The percentages of inhibition are expressed in percentages of variation in relation to control ± standard deviation.

`CC(=O)N1CCN([C@H]2CCN(C(=O)N(C)[C@H](C)c3cc(C(F)(F)F)cc(C(F)(F)F)c3)[C@@H](c3ccc(F)cc3C)C2)CC1` [Casopitant] was tested, and the “Percentage of inhibition of cell cultures” value ([1]; Breast carcinoma (ductal adenocarcinoma), cases with presence of ERK) was 93±4 percentage, the “Percentage of inhibition of cell cultures” value ([1]; Breast carcinoma (ductal adenocarcinoma), cases without presence of ERK) was 26±4 percentage and the “Percentage of inhibition of cell cultures” value ([1]; Burkitt Lymphoma, cases with presence of ERK) was 97±5 percentage. For the same compound, the “Percentage of inhibition of cell cultures” value ([1]; Burkitt Lymphoma, cases without presence of ERK) was 28±6 percentage, the “Percentage of inhibition of cell cultures” value ([1]; Carcinoma of the uterine cervix (Squamous cell carcinoma), cases with presence of ERK) was 93±4 percentage and the “Percentage of inhibition of cell cultures” value ([1]; Carcinoma of the uterine cervix (Squamous cell carcinoma), cases without presence of ERK) was 28±3 percentage. For the same compound, the “Percentage of inhibition of cell cultures” value ([1]; Colon carcinoma (Adenocarcinoma), cases with presence of ERK) was 95±3 percentage, the “Percentage of inhibition of cell cultures” value ([1]; Colon carcinoma (Adenocarcinoma), cases without presence of ERK) was 24±3 percentage and the “Percentage of inhibition of cell cultures” value ([1]; Endometrium carcinoma, cases with presence of ERK) was 93±5 percentage. The “Percentage of inhibition of cell cultures” value ([1]; Endometrium carcinoma, cases without presence of ERK) was 29±2 percentage, the “Percentage of inhibition of cell cultures” value ([1]; Gastric carcinoma (Adenocarcinoma), cases with presence of ERK) was 96±4 percentage and the “Percentage of inhibition of cell cultures” value ([1]; Gastric carcinoma (Adenocarcinoma), cases without presence of ERK) was 25±6 percentage. For the same compound, the “Percentage of inhibition of cell cultures” value ([1]; Glioma (astrocytoma), cases with presence of ERK) was 93±4 percentage, the “Percentage of inhibition of cell cultures” value ([1]; Glioma (astrocytoma), cases without presence of ERK) was 28±3 percentage and the “Percentage of inhibition of cell cultures” value ([1]; Lung carcinoma (non small cell lung carcinoma), cases with presence of ERK) was 95±7 percentage. For the same compound, the “Percentage of inhibition of cell cultures” value ([1]; Lung carcinoma (non small cell lung carcinoma), cases without presence of ERK) was 27±5 percentage, the “Percentage of inhibition of cell cultures” value ([1]; Lung carcinoma (small cell lung carcinoma), cases with presence of ERK) was 94±5 percentage and the “Percentage of inhibition of cell cultures” value ([1]; Lung carcinoma (small cell lung carcinoma), cases without presence of ERK) was 29±4 percentage. The “Percentage of inhibition of cell cultures” value ([1]; Melanoma (Nodular Melanoma), cases with presence of ERK) was 96±5 percentage, the “Percentage of inhibition of cell cultures” value ([1]; Melanoma (Nodular Melanoma), cases without presence of ERK) was 27±5 percentage and the “Percentage of inhibition of cell cultures” value ([1]; Non Hodgkin Lymphoma B (diffuse B cell lymphoma), cases with presence of ERK) was 97±5 percentage. The “Percentage of inhibition of cell cultures” value ([1]; Non Hodgkin Lymphoma B (diffuse B cell lymphoma), cases without presence of ERK) was 28±4 percentage, the “Percentage of inhibition of cell cultures” value ([1]; Non Hodgkin Lymphoma T (diffuse T cell lymphoma), cases with presence of ERK) was 98±4 percentage and the “Percentage of inhibition of cell cultures” value ([1]; Non Hodgkin Lymphoma T (diffuse T cell lymphoma), cases without presence of ERK) was 29±5 percentage. The “Percentage of inhibition of cell cultures” value ([1]; Ovarian carcinoma (Adenocarcinoma), cases with presence of ERK) was 92±6 percentage, the “Percentage of inhibition of cell cultures” value ([1]; Ovarian carcinoma (Adenocarcinoma), cases without presence of ERK) was 28±5 percentage and the “Percentage of inhibition of cell cultures” value ([1]; Pancreatic carcinoma (Adenocarcinoma), cases with presence of ERK) was 94±2 percentage. For the same compound, the “Percentage of inhibition of cell cultures” value ([1]; Pancreatic carcinoma (Adenocarcinoma), cases without presence of ERK) was 23±4 percentage, the “Percentage of inhibition of cell cultures” value ([1]; Prostate carcinoma, cases with presence of ERK) was 94±5 percentage and the “Percentage of inhibition of cell cultures” value ([1]; Prostate carcinoma, cases without presence of ERK) was 27±4 percentage. For the same compound, the “Percentage of inhibition of cell cultures” value ([1]; Renal cell carcinoma (clear cell renal cell carcinoma), cases with presence of ERK) was 94±3 percentage, the “Percentage of inhibition of cell cultures” value ([1]; Renal cell carcinoma (clear cell renal cell carcinoma), cases without presence of ERK) was 27±3 percentage and the “Percentage of inhibition of cell cultures” value ([1]; Thyroid carcinoma (follicular carcinoma), cases with presence of ERK) was 96±6 percentage. The “Percentage of inhibition of cell cultures” value ([1]; Thyroid carcinoma (follicular carcinoma), cases without presence of ERK) was 26±4 percentage, the “Percentage of inhibition of cell cultures” value ([1]; Thyroid carcinoma (papillary carcinoma), cases with presence of ERK) was 97±4 percentage and the “Percentage of inhibition of cell cultures” value ([1]; Thyroid carcinoma (papillary carcinoma), cases without presence of ERK) was 28±3 percentage. For the same compound, the “Percentage of inhibition of cell cultures” value ([1]; Undifferentiated Pleomorphic Sarcoma (malignant fibrous histiocytoma grade 3), cases with presence of ERK) was 95±3 percentage, the “Percentage of inhibition of cell cultures” value ([1]; Undifferentiated Pleomorphic Sarcoma (malignant fibrous histiocytoma grade 3), cases without presence of ERK) was 26±4 percentage and the “Percentage of inhibition of cell cultures” value ([1]; Urinary bladder carcinoma (transitional cell carcinoma), cases with presence of ERK) was 98±2 percentage. For the same compound, the “Percentage of inhibition of cell cultures” value ([1]; Urinary bladder carcinoma (transitional cell carcinoma), cases without presence of ERK) was 29±4 percentage, the “inhibition of cell proliferation” value ([1]; cancer cell cultures that show more presence of ERK, compared, non-peptidic antagonists 100 micromolar, antibody 1/50) was “higher inhibition” and the inhibition at 1 µM (Prostate carcinoma; read-out: Percentage of inhibition of cell cultures, NK1 receptor immunostaining Group 1 (less than 20% of the cells)) was 16 ± 2%. It also gave an inhibition at 1 µM (Prostate carcinoma; read-out: Percentage of inhibition of cell cultures, NK1 receptor immunostaining Group 2 (20-80% of the cells)) of 45 ± 4%, an inhibition at 1 µM (Prostate carcinoma; read-out: Percentage of inhibition of cell cultures, NK1 receptor immunostaining Group 3 (more than 80% of the cells)) of 93 ± 4% and an inhibition at 1 µM (Prostate carcinoma; read-out: Percentage of inhibition of cell cultures, NK1 receptor immunostaining Intensity grade 1) of 33 ± 5%. The inhibition at 1 µM (Prostate carcinoma; read-out: Percentage of inhibition of cell cultures, NK1 receptor immunostaining Intensity grade 2) was 53 ± 3%, the inhibition at 1 µM (Prostate carcinoma; read-out: Percentage of inhibition of cell cultures, NK1 receptor immunostaining Intensity grade 3) was 94 ± 2% and the inhibition at 100 µM ([2]; Cases with Kras mutated) was 29 ± 4%. For the same compound, the inhibition at 100 µM ([2]; Cases with Kras non-mutated (wild type)) was 97 ± 6%, the “Percentage of inhibition of cell cultures” value ([3]; Breast carcinoma (ductal adenocarcinoma), Cases with amplification of the gene that encodes for the NK1 receptor) was 94±7 percentage and the “Percentage of inhibition of cell cultures” value ([3]; Breast carcinoma (ductal adenocarcinoma), Cases without amplification of the gene that encodes for the NK1 receptor) was 23±8 percentage. For the same compound, the “Percentage of inhibition of cell cultures” value ([3]; Burkitt Lymphoma, Cases with amplification of the gene that encodes for the NK1 receptor) was 93±6 percentage, the “Percentage of inhibition of cell cultures” value ([3]; Burkitt Lymphoma, Cases without amplification of the gene that encodes for the NK1 receptor) was 24±5 percentage and the “Percentage of inhibition of cell cultures” value ([3]; Carcinoma of the uterine cervix (Squamous cell carcinoma), Cases with amplification of the gene that encodes for the NK1 receptor) was 94±6 percentage. For the same compound, the “Percentage of inhibition of cell cultures” value ([3]; Carcinoma of the uterine cervix (Squamous cell carcinoma), Cases without amplification of the gene that encodes for the NK1 receptor) was 23±6 percentage, the “Percentage of inhibition of cell cultures” value ([3]; Colon carcinoma (Adenocarcinoma), Cases with amplification of the gene that encodes for the NK1 receptor) was 96±4 percentage and the “Percentage of inhibition of cell cultures” value ([3]; Colon carcinoma (Adenocarcinoma), Cases without amplification of the gene that encodes for the NK1 receptor) was 24±4 percentage. For the same compound, the “Percentage of inhibition of cell cultures” value ([3]; Endometrium carcinoma, Cases with amplification of the gene that encodes for the NK1 receptor) was 96±5 percentage, the “Percentage of inhibition of cell cultures” value ([3]; Endometrium carcinoma, Cases without amplification of the gene that encodes for the NK1 receptor) was 24±4 percentage and the “Percentage of inhibition of cell cultures” value ([3]; Gastric carcinoma (Adenocarcinoma), Cases with amplification of the gene that encodes for the NK1 receptor) was 95±5 percentage. For the same compound, the “Percentage of inhibition of cell cultures” value ([3]; Gastric carcinoma (Adenocarcinoma), Cases without amplification of the gene that encodes for the NK1 receptor) was 23±5 percentage, the “Percentage of inhibition of cell cultures” value ([3]; Glioma (astrocytoma), Cases with amplification of the gene that encodes for the NK1 receptor) was 95±4 percentage and the “Percentage of inhibition of cell cultures” value ([3]; Glioma (astrocytoma), Cases without amplification of the gene that encodes for the NK1 receptor) was 24±6 percentage. The “Percentage of inhibition of cell cultures” value ([3]; Lung carcinoma (non small cell lung carcinoma), Cases with amplification of the gene that encodes for the NK1 receptor) was 96±5 percentage, the “Percentage of inhibition of cell cultures” value ([3]; Lung carcinoma (non small cell lung carcinoma), Cases without amplification of the gene that encodes for the NK1 receptor) was 26±6 percentage and the “Percentage of inhibition of cell cultures” value ([3]; Lung carcinoma (small cell lung carcinoma), Cases with amplification of the gene that encodes for the NK1 receptor) was 95±4 percentage. The “Percentage of inhibition of cell cultures” value ([3]; Lung carcinoma (small cell lung carcinoma), Cases without amplification of the gene that encodes for the NK1 receptor) was 24±4 percentage, the “Percentage of inhibition of cell cultures” value ([3]; Melanoma (Nodular Melanoma), Cases with amplification of the gene that encodes for the NK1 receptor) was 97±5 percentage and the “Percentage of inhibition of cell cultures” value ([3]; Melanoma (Nodular Melanoma), Cases without amplification of the gene that encodes for the NK1 receptor) was 26±4 percentage. For the same compound, the “Percentage of inhibition of cell cultures” value ([3]; Non Hodgkin Lymphoma B (diffuse B cell lymphoma), Cases with amplification of the gene that encodes for the NK1 receptor) was 95±7 percentage, the “Percentage of inhibition of cell cultures” value ([3]; Non Hodgkin Lymphoma B (diffuse B cell lymphoma), Cases without amplification of the gene that encodes for the NK1 receptor) was 27±5 percentage and the “Percentage of inhibition of cell cultures” value ([3]; Non Hodgkin Lymphoma T (diffuse T cell lymphoma), Cases with amplification of the gene that encodes for the NK1 receptor) was 95±5 percentage. The “Percentage of inhibition of cell cultures” value ([3]; Non Hodgkin Lymphoma T (diffuse T cell lymphoma), Cases without amplification of the gene that encodes for the NK1 receptor) was 28±7 percentage, the “Percentage of inhibition of cell cultures” value ([3]; Ovarian carcinoma(Adenocarcinoma), Cases with amplification of the gene that encodes for the NK1 receptor) was 95±4 percentage and the “Percentage of inhibition of cell cultures” value ([3]; Ovarian carcinoma(Adenocarcinoma), Cases without amplification of the gene that encodes for the NK1 receptor) was 24±5 percentage. For the same compound, the “Percentage of inhibition of cell cultures” value ([3]; Pancreatic carcinoma (Adenocarcinoma), Cases with amplification of the gene that encodes for the NK1 receptor) was 97±5 percentage, the “Percentage of inhibition of cell cultures” value ([3]; Pancreatic carcinoma (Adenocarcinoma), Cases without amplification of the gene that encodes for the NK1 receptor) was 26±6 percentage and the “Percentage of inhibition of cell cultures” value ([3]; Prostate carcinoma, Cases with amplification of the gene that encodes for the NK1 receptor) was 96±5 percentage.
